Data as given in patent US20140349989A1, “COMPOUNDS AND THERAPEUTIC USES THEREOF” (Alzheimer's Institute of America, priority 2011, published 2014).

Assay: Cytotoxicity Assay (HCT116, CellTiter-Glo)
Format: cell-based
Settings: human, HCT116 cell cytotoxicity IC50
Procedure: HCT116 cells were seeded in 96 well plates (Greiner Bio-One, Monroe, N.C.) and allowed to settle overnight. Test compound dissolved in dimethyl sulfoxide (DMSO) was added and drug incubation proceeded for 72 hours. When applicable, a 1000× solution of nicotinic acid (NA; Sigma-Aldrich, St. Louis, Mo.) dissolved in water was generated, and 1×NA (10 μM final concentration) was added at the same time as the test compound. After 72 hour, 50 μL of CellTiter-Glo Luminescent Cell Viability Assay reagent (Promega Corporation, Madison, Wis.) was added to cells in 200 μL of cellular media. After a proscribed incubation period, luminescence was measured using a TopCount NXT plate reader (PerkinElmer, Waltham, Mass.).

Compound | IC50 at 72 h
Cc1c(C(=O)N2CCC(n3ccnc3)CC2)c2ccccc2n1-c1ccc(NC(=O)NCc2cccnc2)cc1 [Compound 48, 1-[4-(3-{[4-(1H-Imidazol-1-yl)piperidin-1-yl]carbonyl}-2-methyl-1H-indol-1-yl)phenyl]-3-(pyridin-3-ylmethyl)urea] | ≥ 100 nM
O=C(NCc1ccc(Cl)nc1)Nc1ccc(-n2nc(N3CCN(C4CCCC4)CC3)c3ccccc32)cc1 [Compound 55, 1-[(6-Chloro-pyridin-3-yl)methyl]-3-{4-[3-(4-cyclopentyl-piperazin-1-yl)-1H-indazol-1-yl]phenyl}urea] | ≥ 100 nM
CCOC(=O)c1c(C)n(-c2ccc(NC(=O)NCc3cccnc3)cc2)c2ccccc12 [Compound 79, Ethyl 2-methyl-1-(4-{[(pyridin-3-ylmethyl)carbamoyl]amino}phenyl)-1H-indole-3-carboxylate] | ≥ 100 nM
Nc1nn(-c2ccc(NC(=O)NCc3cccnc3)cc2)c2ccccc12 [Compound 44, 1-[4-(3-aminoindazol-1-yl)phenyl]-3-(3-pyridylmethyl)urea] | ≥ 100 nM
O=C(NCc1cccnc1)Nc1ccc(-n2nc(C#CCN3CCOCC3)c3ccccc32)cc1 [Compound 42, 1-(4-{3-[3-(Morpholin-4-yl)prop-1-yn-1-yl]-1H-indazol-1-yl}phenyl)-3-(pyridin-3-ylmethyl)urea] | < 100 nM
O=C(NCc1cccnc1)Nc1ccc(-n2cc(C3CCN(CC(F)(F)F)CC3)c3ccccc32)cc1 [Compound 82, 1-(Pyridin-3-ylmethyl)-3-(4-{3-[1-(2,2,2-trifluoroethyl)piperidin-4-yl]-1H-indol-1-yl}phenyl)urea] | < 100 nM
CC(C)(C)OC(=O)N1CCC(n2cc(CCCCCCNC(=O)NCc3cccnc3)c3ccccc32)CC1 [Compound 123, tert-Butyl 4-[3-(6-{[(pyridin-3-ylmethyl)carbamoyl]amino}hexyl)-1H-indol-1-yl]piperidine-1-carboxylate] | ≥ 100 nM

Same assay, conditions: human, HCT116 cells, 72 hours drug incubation, CellTiter-Glo luminescence; read-out: HCT116 cell cytotoxicity IC50

Compound | IC50 at 72 h
CN1CCN(C2CCN(C(=O)c3cn(CCCCNC(=O)NCc4cccnc4)c4ccccc34)CC2)CC1 [Compound 115, 1-[4-(3-{[4-(4-Methylpiperazin-1-yl)piperidin-1-yl]carbonyl}-1H-indol-1-yl)butyl]-3-(pyridin-3-ylmethyl)urea] | < 100 nM
O=C(NCCCCC(=O)c1cn(C2CCNCC2)c2ccccc12)NCc1cccnc1 [Compound 90, 1-{5-Oxo-5-[1-(piperidin-4-yl)-1H-indol-3-yl]pentyl}-3-(pyridin-3-ylmethyl)urea] | < 100 nM
CN(C)C1CCN(C(=O)c2nn(-c3ccc(/C=C/C(=O)NCc4cccnc4)cc3)c3ccccc23)C1 (stereo not shown) [Compound 166, (2E)-3-[4-(3-{[3-(Dimethylamino)pyrrolidin-1-yl]carbonyl}-1H-indazol-1-yl)phenyl]-N-(pyridin-3-ylmethyl)prop-2-enamide] | < 100 nM
O=C(NCc1cccnc1)Nc1ccc(-c2nn(C3CNC3)c3ccccc23)cc1 [Compound 91, 1-{4-[1-(Azetidin-3-yl)-1H-indazol-3-yl]phenyl}-3-(pyridin-3-ylmethyl) urea] | < 100 nM
CCN1CCN(C(=O)c2cn(CCCCCNC(=O)NCc3cncs3)c3ccccc23)CC1 [Compound 113, 1-(5-{3-[(4-Ethylpiperazin-1-yl)carbonyl]-1H-indol-1-yl}pentyl)-3-(1,3-thiazol-5-ylmethyl) urea] | < 100 nM
O=C(NCCCCCn1cc(C(=O)N2CCN(C3CCCCC3)CC2)c2ccccc21)NCc1cncs1 [Compound 124, 1-(5-{3-[(4-Cyclohexyl-piperazin-1-yl)carbonyl]-1H-indol-1-yl}pentyl)-3-(1,3-thiazol-5-ylmethyl) urea] | < 100 nM
O=C(NCc1cccnc1)Nc1ccc(N2CC3(CCN(C(=O)OCc4ccccc4)CC3)c3ccccc32)cc1 [Compound 66, Benzyl 1-(4-{[(pyridin-3-ylmethyl)carbamoyl]ami-no}phenyl)-1,2-dihydro-1′H-spiro[indole-3,4′-piperidine]-1′-carboxyylate] | < 100 nM
Cc1c(C(=O)N2CCC(N3CCC(F)(F)CC3)CC2)c2ccccc2n1-c1ccc(NC(=O)NCc2cccnc2)cc1 [Compound 77, 1-(4-{3-[(4,4-Difluoro-1,4′-bipiperidin-1′-yl)carbonyl]-2-methyl-1H-indol-1-yl}phenyl)-3-(pyridin-3-ylmethyl)urea] | < 100 nM
Cc1c(C(=O)N2CCN(C3CCC(F)(F)CC3)CC2)c2ccccc2n1-c1ccc(NC(=O)NCc2cccnc2)cc1 [Compound 93, 1-[4-(3-{[4-(4,4-Difluoro-cyclohexyl)pipe-razin-1-yl]carbonyl}-2-methyl-1H-indol-1-yl)phenyl]-3-(pyridin-3-ylmethyl)urea] | < 100 nM
O=C(NCc1cccnc1)Nc1ccc(-n2cc(-c3nccn3CCN3CCCCC3)c3ccccc32)cc1 [Compound 52, 1-[4-(3-{1-[2-(Piperidin-1-yl)ethyl]-1H-imidazol-2-yl}-1H-indol-1-yl)phenyl]-3-(pyridin-3-ylmethyl)urea] | < 100 nM
CCN1CCN(C(=O)c2cn(-c3ccc(NC(=O)NCc4cccnc4)cc3Cl)c3ccccc23)CC1 [Compound 95, 1-(3-Chloro-4-{3-[(4-ethylpiperazin-1-yl)carbonyl]-1H-indol-1-yl}phenyl)-3-(pyridin-3-ylmethyl)urea] | < 100 nM
O=C(NCc1cccnc1)Nc1ccc(-n2cc([C@H]3CC[C@@H](N4CC(F)(F)C4)CC3)c3ccccc32)cc1 [Compound 94, 1-[4-[3-[4-(3,3-difluoroazetidin-1-yl)cyclohexyl]indol-1-yl]phenyl]-3-(3-pyridylmethyl)urea] | < 100 nM
O=C(/C=C/c1ccc(-n2nc(C(=O)N3CCN(C4CCC4)CC3)c3ccccc32)cc1)NCc1cccnc1 [Compound 167, (2E)-3-(4-{3-[(4-Cyclobutylpiperazin-1-yl)carbonyl]-1H-indazol-1-yl}phenyl)-N-(pyridin-3-ylmethyl)prop-2-enamide] | < 100 nM
CN1CCN(C(=O)Cc2cn(-c3ccc(NC(=O)NCc4cccnc4)cc3)c3ccccc23)CC1 [Compound 101, 1-(4-{3-[2-(4-Methylpiperazin-1-yl)-2-oxoethyl]-1H-indol-1-yl}phenyl)-3-(pyridin-3-ylmethyl)urea] | < 100 nM
O=C(NCc1cccnc1)Nc1ccc(-n2nc(N3CCN(C4CCCCC4)CC3)c3ccccc32)cc1 [Compound 86, 1-{4-[3-(4-Cyclo-hexylpiperazin-1-yl)-1H-indazol-1-yl]phenyl}-3-(pyridin-3-ylmethyl)urea] | < 100 nM
O=C(NCc1cccnc1)Nc1ccc(-n2cc(-c3ccccc3OCCCN3CCOCC3)cn2)cc1 [Compound 30, 1-[4-(4-{2-[3-(Morpholin-4-yl)propoxy]phenyl}-1H-pyrazol-1-yl)phenyl]-3-(pyridin-3-ylmethyl)urea] | < 100 nM
Cc1c(C(=O)N2CCN(C3CCCCC3)CC2)c2ccccc2n1-c1ccc(NC(=O)NCc2cccnc2)cc1 [Compound 104, 1-(4-{3-[(4-Cyclohexyl-piperazin-1-yl)carbonyl]-2-methyl-1H-indol-1-yl}phenyl)-3-(pyridin-3-ylmethyl)urea] | < 100 nM
O=C(NCc1cccnc1)Nc1ccc(-n2cc(CCN3CCC(F)(F)C3)c3ccccc32)cc1 [Compound 69, 1-(4-{3-[2-(3,3-Difluoropyrrolidin-1-yl)ethyl]-1H-indol-1-yl}phenyl)-3-(pyridin-3-ylmethyl) urea] | < 100 nM
O=C(NCCCCn1cc(C(=O)N2CCC(N3CCCCC3)CC2)c2ccccc21)NCc1cccnc1 [Compound 57, 1-{4-[3-(1,4′-Bipiperidin-1′-yl-carbonyl)-1H-indol-1-yl]butyl}-3-(pyridin-3-ylmethyl) urea] | < 100 nM
Cc1c(Cc2ccccc2)c(C(=O)N2CCC(N3CCCCC3)CC2)nn1-c1ccc(NC(=O)NCc2cccnc2)cc1 [Compound 46, 1-{4-[4-Benzyl-3-(1,4′-bipiperidin-1′-ylcarbonyl)-5-methyl-1H-pyrazol-1-yl]phenyl}-3-(pyridin-3-ylmethyl)urea] | < 100 nM
O=C(NCc1cccnc1)Nc1ccc(-n2nc(N3CCNCC3)c3ccccc32)cc1 [Compound 98, 1-{4-[3-(Piperazin-1-yl)-1H-indazol-1-yl]phenyl}-3-(pyridin-3-ylmethyl)urea] | < 100 nM
O=C(CCc1ccc(-n2cc(CCN3CCOCC3)c3ccccc32)cc1)NCc1cccnc1 [Compound 180, 3-(4-{3-[2-(Morpholin-4-yl)ethyl]-1H-indol-1-yl}phenyl)-N-(pyridin-3-ylmethyl)propanamide] | < 100 nM
C[C@@H]1CN(CCc2cn(-c3ccc(NC(=O)NCc4cccnc4)cc3)c3ccccc23)C[C@H](C)O1 [Compound 53, 1-[4-(3-{2-[(2R,6S)-2,6-Dimethyl-morpholin-4-yl]ethyl}-1H-indol-1-yl)phenyl]-3-(pyridin-3-ylmethyl)urea] | < 100 nM
CC(C)N(CCc1cn(-c2ccc(/C=C/C(=O)NCc3cccnc3)cc2)c2ccccc12)C(C)C [Compound 163] | < 100 nM
O=C(NCc1cccnc1)N[C@H]1CC[C@H](n2cc(C(=O)N3CCN(C4CCCCC4)CC3)c3ccccc32)CC1 [Compound 37, 1-(trans-4-{3-[(4-Cyclohexyl-piperazin-1-yl)carbonyl]-1H-indol-1-yl}cyclohexyl)-3-(pyridin-3-ylmethyl)urea] | < 100 nM
O=C(/C=C/c1ccc(-n2cc(CCN3CCOCC3)c3ccccc32)nc1)NCc1cccnc1 [Compound 179, (2E)-3-(6-{3-[2-(Morpholin-4-yl)ethyl]-1H-indol-1-yl}pyridin-3-yl)-N-(pyridin-3-ylmethyl)prop-2-enamide] | < 100 nM
O=C(/C=C/c1ccc(-n2cc(CCN3CCCC3)c3ccccc32)cc1)NCc1cccnc1 [Compound 174, (2E)-N-(Pyridin-3-ylmethyl)-3-(4-{3-[2-(pyrrolidin-1-yl)ethyl]-1H-indol-1-yl}phenyl)prop-2-enamide] | < 100 nM
